Test: xn = mol fraction of the nth substance listed
Conditions: 298.15 K, 101 kPa

CC(=O)[O-].C[NH+](C)C + O
Conditions	speed of sound [m/s]	viscosity [mPa·s]
x1 = 0.0451	1499	1.199
x1 = 0.0651	1503	1.31
x1 = 0.0978	1504	1.5
x1 = 0.1283	1507	1.64
x1 = 0.1524	1510	1.75
x1 = 0.2133	1517	1.99
x1 = 0.3002	1525	2.24
x1 = 0.328	1527	2.31
x1 = 0.3943	1532	2.43
x1 = 0.4341	1534	2.48
x1 = 0.4797	1535	2.52
x1 = 0.5325	1537	2.56
x1 = 0.6292	1538	2.61
x1 = 0.7094	1539	2.62
x1 = 0.7556	1540	2.63
x1 = 0.9278	1542	2.69
x1 = 1	1544	2.76

O + CC(=O)[O-].CC[NH2+]CC
Conditions	speed of sound [m/s]
x1 = 1	1496

O + CC[NH+](CC)CC.O=S(=O)([O-])O
x1 = 1
Conditions	speed of sound [m/s]	viscosity [mPa·s]
–	1496	0.89

CC(=O)[O-].CC[NH2+]CC + O
Conditions	speed of sound [m/s]
x2 = 0	1608
x2 = 0.0881	1602
x2 = 0.1637	1599
x2 = 0.2293	1598
x2 = 0.2866	1597
x2 = 0.3373	1596
x2 = 0.459	1594
x2 = 0.5741	1589
x2 = 0.6182	1585
x2 = 0.6562	1581
x2 = 0.7179	1572
x2 = 0.7433	1568
x2 = 0.8208	1551
x2 = 0.8735	1538
x2 = 0.8941	1532
x2 = 0.9197	1524
x2 = 0.9468	1516
x2 = 0.9634	1510

O + C[NH+](C)C.O=S(=O)([O-])O
x1 = 1
Conditions	speed of sound [m/s]	viscosity [mPa·s]
–	1496	0.89

C[NH+](C)C.O=S(=O)([O-])O + O
Conditions	speed of sound [m/s]	viscosity [mPa·s]
x2 = 0	1564	5.1
x2 = 0.1369	1553	4.86
x2 = 0.1942	1555	4.74
x2 = 0.2919	1558	4.53
x2 = 0.3723	1562	4.34
x2 = 0.4691	1565	4.05
x2 = 0.5219	1564	3.88
x2 = 0.6073	1556	3.54
x2 = 0.6734	1541	3.22
x2 = 0.7012	1531	3.08
x2 = 0.7878	1502	2.58
x2 = 0.8724	1472	2.01
x2 = 0.9027	1470	1.76
x2 = 0.9352	1466	1.49

O + CC[NH2+]CC.O=S(=O)([O-])O
x1 = 1
Conditions	speed of sound [m/s]	viscosity [mPa·s]
–	1496	0.89

CC[NH+](CC)CC.O=S(=O)([O-])O + O
Conditions	speed of sound [m/s]	viscosity [mPa·s]
x2 = 0	1874	235
x2 = 0.1228	1828	210
x2 = 0.2209	1819	195
x2 = 0.3679	1836	176
x2 = 0.4728	1844	162
x2 = 0.5147	1843	156
x2 = 0.6613	1795	129
x2 = 0.7011	1772	120
x2 = 0.7866	1702	95.2
x2 = 0.8075	1677	87.3
x2 = 0.869	1616	63.1
x2 = 0.9091	1581	48.8
x2 = 0.9432	1542	29.5
x2 = 0.9627	1526	19.9
x2 = 0.9743	1507	14.14

CC[NH2+]CC.O=S(=O)([O-])O + O
Conditions	speed of sound [m/s]	viscosity [mPa·s]
x2 = 0.1212	1426	30.4
x2 = 0.2183	1429	29.6
x2 = 0.2979	1433	30.1
x2 = 0.3644	1436	31
x2 = 0.4207	1437	31.3
x2 = 0.5476	1443	32.3
x2 = 0.6578	1441	31.4
x2 = 0.6979	1440	30.2
x2 = 0.7314	1439	28.8
x2 = 0.7841	1437	26
x2 = 0.8051	1438	24.6
x2 = 0.8673	1439	19.3
x2 = 0.9079	1444	15.14
x2 = 0.9233	1448	13.51
x2 = 0.9424	1454	11.06
x2 = 0.9622	1461	8.48
x2 = 0.9741	1468	6.19

Reference: a compilation of properties of binary mixtures (doi:10.1021/jp502400z)
